Laboratory results: US7118767B2, “Pharmaceutical composition for increasing the production of nitric oxide and IFN-γ, and process for preparation thereof” (Jakwang Co., Ltd., priority 2001, dated 2006)

Tests used:
macrophages [1] = assay: Inhibitory effect of N^GMMA on NO production induced by liquids of Example 1 in macrophages; type: cell-based, mice; details: macrophages with liquids (1 mg/mL) of Example 1 and IFN-γ; FIG. 3
Description: (§1) The amount of NO production from macrophages was measured by Griess reaction by quantitizing nitrite (NO2^−), oxides of NO, accumulated on the broth. That is, 100 μL of Griess reagents in which 0.1% naphthylethylene diaminedihydrochloride and 1% sulfanilamide is mixed at the same amount and 100 μL of culture media was mixed, and after 10 minutes, absorbance was measured at 540 nm by ELISA reader. Standard curve using sodium nitrite as standard substance was drawn and the concentration of NO was determined from the absorbance.
To investigate if iNOS production from macrophages by the composition of the present invention is included in L-arginine-dependent process, the macrophages were treated liquids (1 mg/mL) of Example 1 in the presence of IFN-γ and NGMMA, the competitive inhibitor of NO production, and the amount of NO production was measured by the same method as Experiment 2.

macrophages [2] = assay: Inhibiting effect on iNOS production by NF-kB inhibitor (NO2^- concentration in macrophages); type: cell-based, mice
Description: as §1
Hereupon, macrophages were treated with recombinant IFN-γ (rIFN-γ) and liquids (1 mg/mL) of Example 1 followed by treatment with pyrrolidine dithiocarbamnate (PDTC) and N^α-Tosyl-phenylalanyl chloromethyl ketone (TPCK), which are NF-kB inhitors, respectively and the change of concentration of NO2^− was observed together with control group. The results are shown in the hereinbelow Table 1 [Inhibitory effect on iNOS production by NF-kB inhibitor].

Molecule: CNC(=N)NCCC[C@H](N)C(=O)O [N^GMMA, N^G-monomethyl-L-arginine]
- amount of NO production as the amount of N^GMMA increases (macrophages [1]): tendency to decrease

Molecule: S=C(S)N1CCCC1 [PDTC, pyrrolidine dithiocarbamnate]
- Concentration of NO2^- (macrophages [2]; rIFN-γ (10 U/mL) + Liquids of Example 1 (1 mg/mL) + PDTC (100 μM)): 10.5 ± 2.8

B1: rIFN-γ: recombinant IFN-γ (rIFN-γ), used at 10 U/mL (protein, UniProt P01579 24-161, looked up)
Interferon gamma: QDPYVKEAENLKKYFNAGHSDVADNGTLFLGILKNWKEESDRKIMQSQIVSFYFKLFKNFKDDQSIQKSVETIKEDMNVKFFNSNKKKRDDFEKLTNYSVTDLNVQRKAIHELIQVMAELSPAAKTGKRKRSQMLFRG
- Concentration of NO2^- (macrophages [2]; rIFN-γ (10 U/mL) only): 32 ± 3.2
